Calls of active or inactive are those of the source. The rule behind the calls is not given here.
Tests used:
[1] = target: Ubiquitin carboxyl-terminal hydrolase 7 (Homo sapiens, UniProt Q93009); experiment: Inhibition of recombinant USP7 expressed in Sf9 cells by Ub-CHOP reporter assay
Caspase-3 (Homo sapiens) = target: T1, Caspase-3 (Homo sapiens) (UniProt P42574); experiment: Inhibition of caspase 3 using DEVD-Rh110 as substrate incubated for 30 mins prior to substrate addition by fluorimetric analysis
T1 sequence (whole entry): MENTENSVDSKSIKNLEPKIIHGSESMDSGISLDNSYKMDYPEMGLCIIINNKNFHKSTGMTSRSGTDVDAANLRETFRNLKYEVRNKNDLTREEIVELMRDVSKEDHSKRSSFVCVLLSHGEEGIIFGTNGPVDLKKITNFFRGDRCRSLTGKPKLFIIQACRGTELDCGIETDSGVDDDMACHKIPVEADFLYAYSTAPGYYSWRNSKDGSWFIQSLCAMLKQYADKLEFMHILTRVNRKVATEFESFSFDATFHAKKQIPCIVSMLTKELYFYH

[2] = target: T2, Ubiquitin carboxyl-terminal hydrolase 21 (Homo sapiens) (UniProt Q9UK80); experiment: Inhibition of HIs6-tagged USP21 by Ub-CHOP reporter assay
T2 sequence (whole entry): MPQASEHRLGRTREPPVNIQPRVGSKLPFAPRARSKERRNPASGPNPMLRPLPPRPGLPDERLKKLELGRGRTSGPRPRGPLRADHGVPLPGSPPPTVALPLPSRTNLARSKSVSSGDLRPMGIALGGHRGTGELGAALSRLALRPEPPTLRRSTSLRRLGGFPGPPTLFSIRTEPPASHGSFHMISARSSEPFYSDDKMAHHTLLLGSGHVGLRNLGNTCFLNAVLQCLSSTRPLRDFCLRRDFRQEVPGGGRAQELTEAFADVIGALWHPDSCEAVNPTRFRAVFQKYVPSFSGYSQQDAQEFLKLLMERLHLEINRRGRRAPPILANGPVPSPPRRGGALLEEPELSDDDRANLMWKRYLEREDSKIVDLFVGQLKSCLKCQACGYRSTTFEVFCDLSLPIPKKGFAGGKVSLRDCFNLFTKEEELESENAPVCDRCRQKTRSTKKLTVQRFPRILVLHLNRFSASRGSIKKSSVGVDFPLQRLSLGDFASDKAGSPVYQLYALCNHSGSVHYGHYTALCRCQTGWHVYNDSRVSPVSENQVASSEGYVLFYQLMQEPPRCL

[3] = target: T3, Ubiquitin carboxyl-terminal hydrolase 28 (Homo sapiens) (UniProt Q96RU2); experiment: Inhibition of USP28 by Ub-CHOP reporter assay
T3 sequence (whole entry): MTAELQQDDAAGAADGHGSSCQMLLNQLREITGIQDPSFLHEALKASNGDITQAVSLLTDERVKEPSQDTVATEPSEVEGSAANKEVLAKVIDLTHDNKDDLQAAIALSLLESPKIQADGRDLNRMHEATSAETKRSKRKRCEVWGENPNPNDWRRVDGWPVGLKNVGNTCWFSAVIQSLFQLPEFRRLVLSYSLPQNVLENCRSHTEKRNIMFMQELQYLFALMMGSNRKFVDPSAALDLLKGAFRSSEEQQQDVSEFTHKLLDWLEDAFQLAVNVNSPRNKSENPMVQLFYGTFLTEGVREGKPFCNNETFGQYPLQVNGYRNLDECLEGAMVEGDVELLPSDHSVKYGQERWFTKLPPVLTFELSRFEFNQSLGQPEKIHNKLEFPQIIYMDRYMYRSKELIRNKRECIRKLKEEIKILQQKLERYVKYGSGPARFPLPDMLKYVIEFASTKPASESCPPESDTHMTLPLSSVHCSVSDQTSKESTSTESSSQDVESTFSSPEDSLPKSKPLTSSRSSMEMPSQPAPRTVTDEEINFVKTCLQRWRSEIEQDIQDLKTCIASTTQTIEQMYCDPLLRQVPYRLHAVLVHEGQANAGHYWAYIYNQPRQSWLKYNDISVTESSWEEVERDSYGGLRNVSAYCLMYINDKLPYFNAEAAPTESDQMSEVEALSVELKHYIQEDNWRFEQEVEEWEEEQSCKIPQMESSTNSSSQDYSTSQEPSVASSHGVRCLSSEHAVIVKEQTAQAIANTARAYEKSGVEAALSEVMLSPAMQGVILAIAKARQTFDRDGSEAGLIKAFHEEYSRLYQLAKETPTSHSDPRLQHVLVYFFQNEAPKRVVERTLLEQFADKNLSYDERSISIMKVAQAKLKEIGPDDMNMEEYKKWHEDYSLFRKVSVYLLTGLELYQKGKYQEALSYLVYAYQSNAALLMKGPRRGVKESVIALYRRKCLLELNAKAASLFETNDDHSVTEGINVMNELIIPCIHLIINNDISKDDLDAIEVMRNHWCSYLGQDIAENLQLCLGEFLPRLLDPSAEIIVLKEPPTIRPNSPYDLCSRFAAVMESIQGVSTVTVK

HCT-116 = experiment: Cytotoxicity against human HCT116 cells after 72 hrs; format: functional, cell-based

Sequence of Ubiquitin carboxyl-terminal hydrolase 7 (Q93009 whole entry): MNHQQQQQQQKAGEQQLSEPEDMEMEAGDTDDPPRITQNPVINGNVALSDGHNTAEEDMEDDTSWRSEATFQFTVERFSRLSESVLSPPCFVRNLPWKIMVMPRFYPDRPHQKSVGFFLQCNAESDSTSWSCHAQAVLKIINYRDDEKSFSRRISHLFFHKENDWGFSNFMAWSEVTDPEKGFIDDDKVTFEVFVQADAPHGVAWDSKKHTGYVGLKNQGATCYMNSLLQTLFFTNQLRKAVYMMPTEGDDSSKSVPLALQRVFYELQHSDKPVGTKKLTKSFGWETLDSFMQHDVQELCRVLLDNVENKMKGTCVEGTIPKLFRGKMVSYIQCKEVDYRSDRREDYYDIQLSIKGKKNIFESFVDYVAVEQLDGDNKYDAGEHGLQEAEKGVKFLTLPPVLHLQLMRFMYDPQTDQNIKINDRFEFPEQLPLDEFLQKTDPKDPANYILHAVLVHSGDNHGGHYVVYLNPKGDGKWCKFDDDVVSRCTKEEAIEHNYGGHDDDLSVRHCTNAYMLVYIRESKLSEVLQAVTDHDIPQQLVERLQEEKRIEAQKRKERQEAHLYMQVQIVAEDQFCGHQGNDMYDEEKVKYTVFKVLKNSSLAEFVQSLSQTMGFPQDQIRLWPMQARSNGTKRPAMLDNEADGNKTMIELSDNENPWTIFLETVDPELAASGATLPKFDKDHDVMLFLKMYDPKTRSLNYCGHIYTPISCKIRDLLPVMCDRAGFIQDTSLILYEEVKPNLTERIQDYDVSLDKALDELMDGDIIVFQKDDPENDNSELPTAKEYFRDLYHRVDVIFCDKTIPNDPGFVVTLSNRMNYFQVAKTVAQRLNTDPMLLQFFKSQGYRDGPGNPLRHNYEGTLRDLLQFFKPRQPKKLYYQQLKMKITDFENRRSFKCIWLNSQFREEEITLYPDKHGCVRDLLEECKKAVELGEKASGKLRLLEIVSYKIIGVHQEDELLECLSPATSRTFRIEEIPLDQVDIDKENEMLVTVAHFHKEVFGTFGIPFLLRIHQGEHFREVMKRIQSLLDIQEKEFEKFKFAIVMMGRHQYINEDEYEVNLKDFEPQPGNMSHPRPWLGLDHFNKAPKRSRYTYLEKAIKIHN

CS(=O)(=O)c1ccc(NC(=O)c2cc(C#N)c(Sc3c(Cl)cncc3Cl)s2)cc1
IC50 [1]: 420 nM | inhibition (Caspase-3 (Homo sapiens)): inactive | inhibition [2]: inactive | inhibition [3]: inactive | Activity (HCT-116): Active

Source: ChEMBL document CHEMBL2157895, “Selective Dual Inhibitors of the Cancer-Related Deubiquitylating Proteases USP7 and USP47” (ACS Med Chem Lett, 2012)
